Test results reported in US20210255184A1, “Biosensor Device and Methods” (The New Zealand Institute for Plant and Food Research …, priority 2018, published 2021).

Assays:
[1] = molecular target: T1, Or22a (Drosophila melanogaster, UniProt P81909); test: Droplet interface bilayer ion channel recording, Or22a only; assay type: biochemical; conditions: DIB, 10 μM ligand, holding potential +/−150, +/−100, +/−50 mV
T1 construct: his-tag; made in house; host or cells: baculovirus-infected Sf9 cells
T1 sequence (P81909 1-397): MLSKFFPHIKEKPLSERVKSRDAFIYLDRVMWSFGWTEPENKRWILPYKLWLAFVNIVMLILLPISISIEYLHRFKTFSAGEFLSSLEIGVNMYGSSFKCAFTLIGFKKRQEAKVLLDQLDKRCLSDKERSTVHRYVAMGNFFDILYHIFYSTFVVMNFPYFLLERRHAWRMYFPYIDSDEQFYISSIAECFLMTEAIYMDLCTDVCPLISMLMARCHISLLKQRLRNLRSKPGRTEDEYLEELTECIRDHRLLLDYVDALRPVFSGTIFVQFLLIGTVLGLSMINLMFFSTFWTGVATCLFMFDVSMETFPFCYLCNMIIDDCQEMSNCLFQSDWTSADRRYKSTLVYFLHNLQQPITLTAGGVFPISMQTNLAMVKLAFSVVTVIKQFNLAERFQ
Procedure: Bilayers were formed between two droplets formed within a PMMA chamber filled with 1 mg/ml DPhPC in undecane and AR20 silicone oil (1:1 ratio). The first step in this process was to deposit a 50 nl droplet onto the stationary silver electrode positioned at the base of the well; this droplet consisted of an aqueous solution containing 300 mM NaCl, 10 mM HEPES (pH 7.4), containing the odorant receptor proteins in proteoliposomes (at a 1:20 dilution from the proteoliposome preparation), […] The second droplet was mounted onto a second silver electrode which was held in the oil and lipid mixture using a YOU-3 manipulator (Narishige, Japan). […] Once the droplets were in contact a bilayer formed spontaneously within 1 minute (as determined by visual assessment and an increase in the bilayer capacitance as measured with a capacitance voltage protocol using the Pico2 amplifier). Insertion of an active channel was determined by a change in current while clamping the voltage at 50 mV. […]
Currents were recorded with a Pico2 or an eONE-HS amplifier (Tecella, USA and Elements, Italy, respectively) with built-in digitizers, operating in gap-free acquisition mode at a sampling frequency of 20 kHz, and using a 0.8 or 1.5 kHz low pass filter. […]
Data were analysed using ANA (Dr Pusch, Genoa), EDR (Elements, Italy) and WinWCP (Dr Dempster, University of Strathclyde). […]

[2] = molecular target: T2, Or10a (Drosophila melanogaster, UniProt Q9VYZ1); test: GFET sensor, Or10a liposomes; assay type: biochemical; conditions: Table 4, GFET
T2 construct: his-tag; made in house; host or cells: baculovirus-infected Sf9 cells
T2 sequence (Q9VYZ1 1-406): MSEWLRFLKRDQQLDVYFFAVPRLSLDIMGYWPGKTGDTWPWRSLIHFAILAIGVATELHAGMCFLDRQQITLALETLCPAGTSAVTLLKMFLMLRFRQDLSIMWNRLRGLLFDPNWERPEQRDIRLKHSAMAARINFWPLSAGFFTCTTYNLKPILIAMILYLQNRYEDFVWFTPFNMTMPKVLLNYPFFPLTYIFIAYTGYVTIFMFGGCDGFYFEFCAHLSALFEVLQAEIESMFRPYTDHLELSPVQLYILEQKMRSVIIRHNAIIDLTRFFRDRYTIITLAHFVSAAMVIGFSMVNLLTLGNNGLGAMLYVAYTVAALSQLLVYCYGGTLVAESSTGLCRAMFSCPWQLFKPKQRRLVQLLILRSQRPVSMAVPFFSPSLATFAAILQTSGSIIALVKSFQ
From the text: The GFETs used in this study were fabricated from a predeposited graphene film on 300 nm SiO2 coated Si substrate from ACS Suppliers, USA. The FETs consist of a channel with dimensions of 100 μm width and […]. The key steps involved in fabricating the GFET on a Si/SiO2 substrate is schematically illustrated in FIG. 12. The source and drain electrodes were defined by photolithography and formed by successive deposition of Cr and Au. Both the drain and source electrodes were then encapsulated using AZ1518 photoresist and a channel with dimensions of 100 μm width and 10 μm length was left open to the environment for gating and functionalisation.
The OR liposomes were functionalised onto the graphene surface via a non-covalent route using PBASE as the molecular linker as shown in FIG. 13. The OR liposomes were diluted at 1:10 ratio with 1×PBS (pH7.4). The cleaned GFETs were immersed in 1 mM PBASE solution in methanol for 1 hour. […]
Electrical sensor measurements of OR liposome functionalised GFETs were carried out using top liquid gate morphology as shown in the schematic in FIG. 15 (a). […] The transfer characteristics of the different graphene FETs (FIG. 15 (b) to (g)) were measured at Vds=1 mV while the liquid gate voltage Vlg was swept from −0.5 V to 1 V with an interval of 20 mV. […]

Row | SMILES | ion channel activity [1] | Detection Range [2] | EC50 [2] [nM]
1 | CCCCCC(=O)OC [methyl hexanoate] | No ion channel activity |  | 
2 | COC(=O)c1ccccc1O [methyl salicylate] |  | 10^−12 to 10^−8 M | 0.0156
